Drawing on patent US20130040935A1, “CYCLIC KETO-ENOLS FOR THERAPY” (BAYER INTELLECTUAL PROPERTY GMBH, priority 2010, published 2013), this text covers IC50 for 27 compounds.

In assay [1] the target is T1, human ACC1 (acetyl-coenzyme A carboxylase alpha transcript variant 1) (Homo sapiens, UniProt Q13085).
T1 construct: FLAG (C); made in house; host or cells: baculovirus-infected insect cells (Hi5)
Kind of assay: Human ACC1 enzyme assay, Assay B1 (ADP-Glo). In kind it is biochemical. In general terms: In ADP-Glo the light output rises with the ADP produced.

In the next assay the test system is MCF7. The assay can be described thus: Cell proliferation assay (CellTiter-Glo, 96 h), MCF7. In kind it is cell-based. The following applies: Homo sapiens. The procedure: In accordance with the invention, the substances were tested in cell-based assays for the ability of the substances of inhibiting tumour cell proliferation after a 96-hour incubation with the substance. Cell viability was tested using the CellTiter-Glo® luminescent cell viability assay (Promega). The cells were sown at a density of 2000-5000 cells/well (depending on the cell line) in 100 μl growth medium on 96-well microtitre plates. For each cell line examined, cells were sown on a separate plate to determine the luminescence at t=0 hours and t=96 hours. After overnight incubation at 37° C., the luminescence values for the t=0 samples were determined. The dose plates for the t=96 hours points in time were treated with substances diluted with growth medium. The cells were then incubated at 37° C. for 96 hours, and the luminescence values for the t=96 hours sample were then determined. For data analysis, the t=0 values were subtracted from the t=96 hour values for treated and untreated samples. The differences in luminescence in percent between substance-treated samples and control values were used to determine the growth inhibition in percent.
The substances were tested in the following cell lines which represent the stated indications in an exemplary manner: […]

Assay [2] concerns the target human ACC2 (acetyl-coenzyme A carboxylase 2) (Homo sapiens, UniProt O00763). Kind of assay: Human ACC2 enzyme assay, Assay B2 (ADP-Glo).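 Also: human ACC2 activity read as ADP product, detected by luciferase glow luminescence after residual ATP removal, enzyme near 2 ng/µl in linear range, detection steps at 22 °C.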
[3] abbreviates: Assay B1, ADP-Glo, read-out: ACC 1 (=B1) IC50.
Setting [4] is: Assay B1, read-out: ACC 1 (=B1) IC50.
The mark [5] stands for this setting: MCF7, Table 9a, 96-hour incubation.

Where two headings read alike, the source gives them in different places.

Sequence of human ACC2 (acetyl-coenzyme A carboxylase 2) (O00763 27-2458 limits assumed): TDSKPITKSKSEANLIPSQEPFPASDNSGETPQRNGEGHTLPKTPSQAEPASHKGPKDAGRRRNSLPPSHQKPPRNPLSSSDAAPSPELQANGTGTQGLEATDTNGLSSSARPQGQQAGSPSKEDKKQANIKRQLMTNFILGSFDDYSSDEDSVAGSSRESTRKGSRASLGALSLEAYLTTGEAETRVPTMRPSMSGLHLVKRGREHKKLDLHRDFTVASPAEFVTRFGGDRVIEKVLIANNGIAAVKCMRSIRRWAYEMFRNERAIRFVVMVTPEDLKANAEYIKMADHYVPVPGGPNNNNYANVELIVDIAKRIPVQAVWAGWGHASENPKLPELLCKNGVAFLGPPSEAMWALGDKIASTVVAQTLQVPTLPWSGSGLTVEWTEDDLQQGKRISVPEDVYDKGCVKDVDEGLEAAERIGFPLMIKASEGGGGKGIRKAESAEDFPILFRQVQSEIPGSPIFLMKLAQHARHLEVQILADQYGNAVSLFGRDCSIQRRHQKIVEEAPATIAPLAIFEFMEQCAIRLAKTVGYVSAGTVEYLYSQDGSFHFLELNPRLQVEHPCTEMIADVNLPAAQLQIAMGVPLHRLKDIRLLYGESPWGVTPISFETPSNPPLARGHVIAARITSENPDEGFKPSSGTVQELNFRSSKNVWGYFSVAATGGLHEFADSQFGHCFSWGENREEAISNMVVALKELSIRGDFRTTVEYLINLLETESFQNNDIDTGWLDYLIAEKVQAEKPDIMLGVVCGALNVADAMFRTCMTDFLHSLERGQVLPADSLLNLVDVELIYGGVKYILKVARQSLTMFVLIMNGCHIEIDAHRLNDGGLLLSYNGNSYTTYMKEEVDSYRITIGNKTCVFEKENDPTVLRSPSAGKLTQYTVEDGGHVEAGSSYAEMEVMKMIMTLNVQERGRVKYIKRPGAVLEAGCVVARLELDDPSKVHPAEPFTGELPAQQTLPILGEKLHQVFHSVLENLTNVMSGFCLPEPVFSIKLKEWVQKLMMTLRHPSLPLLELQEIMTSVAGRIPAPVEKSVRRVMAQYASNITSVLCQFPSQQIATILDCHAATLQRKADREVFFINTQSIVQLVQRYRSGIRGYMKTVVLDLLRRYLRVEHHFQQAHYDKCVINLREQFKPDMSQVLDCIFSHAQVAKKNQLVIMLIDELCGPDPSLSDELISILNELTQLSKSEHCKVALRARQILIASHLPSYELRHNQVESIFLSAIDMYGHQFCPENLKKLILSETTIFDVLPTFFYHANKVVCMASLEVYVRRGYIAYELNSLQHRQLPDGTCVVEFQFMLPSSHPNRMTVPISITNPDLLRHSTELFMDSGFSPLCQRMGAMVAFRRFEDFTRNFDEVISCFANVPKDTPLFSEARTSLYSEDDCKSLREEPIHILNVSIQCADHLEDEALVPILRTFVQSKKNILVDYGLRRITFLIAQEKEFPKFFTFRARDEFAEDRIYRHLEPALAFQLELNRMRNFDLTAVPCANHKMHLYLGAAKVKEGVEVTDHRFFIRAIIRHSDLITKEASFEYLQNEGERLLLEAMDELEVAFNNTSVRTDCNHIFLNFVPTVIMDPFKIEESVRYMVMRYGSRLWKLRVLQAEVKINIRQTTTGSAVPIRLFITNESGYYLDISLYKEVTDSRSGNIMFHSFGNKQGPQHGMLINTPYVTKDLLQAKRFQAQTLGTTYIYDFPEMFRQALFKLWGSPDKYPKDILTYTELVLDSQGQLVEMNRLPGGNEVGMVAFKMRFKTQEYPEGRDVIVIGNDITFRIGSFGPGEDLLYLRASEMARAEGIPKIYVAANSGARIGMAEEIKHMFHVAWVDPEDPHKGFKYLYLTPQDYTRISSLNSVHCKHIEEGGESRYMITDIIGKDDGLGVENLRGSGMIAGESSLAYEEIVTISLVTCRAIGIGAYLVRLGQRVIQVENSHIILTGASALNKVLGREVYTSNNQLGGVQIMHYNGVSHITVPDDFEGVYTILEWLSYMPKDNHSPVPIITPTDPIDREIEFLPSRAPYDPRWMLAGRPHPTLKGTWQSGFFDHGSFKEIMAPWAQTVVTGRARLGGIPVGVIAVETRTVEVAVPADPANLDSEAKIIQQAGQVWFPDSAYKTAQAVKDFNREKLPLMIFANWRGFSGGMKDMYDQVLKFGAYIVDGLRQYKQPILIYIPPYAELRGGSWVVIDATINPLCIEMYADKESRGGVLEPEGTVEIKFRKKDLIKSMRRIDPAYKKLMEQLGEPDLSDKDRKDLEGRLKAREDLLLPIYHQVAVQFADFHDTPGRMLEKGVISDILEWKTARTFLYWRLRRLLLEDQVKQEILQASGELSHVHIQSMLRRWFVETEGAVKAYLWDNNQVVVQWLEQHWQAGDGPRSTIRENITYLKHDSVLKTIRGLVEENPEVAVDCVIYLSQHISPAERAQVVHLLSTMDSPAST

For `Cc1ccc(-c2ccc(Cl)cc2)cc1C1=C(O)C(C)(C)OC1=O` [2-3, 3-(4′-chloro-4-methylbiphenyl-3-yl)-4-hydroxy-5,5-dimethylfuran-2(5H)-one], the results for the IC50 (in assay [1]; in the assay on MCF7 (MCF7 cells); in assay [2]) were 3730 nM, 1060 nM and over 20000 nM, respectively.
On to `Cc1ccc(-c2ccc(Cl)cc2)c(C)c1C1=C(O)C2(CCCCC2)OC1=O` [2-4, 3-(4′-chloro-2,4-dimethylbiphenyl-3-yl)-4-hydroxy-1-oxaspiro[4.5]dec-3-en-2-one], for which the IC50 in assay [1] (setting [3]) was 175 nM; with MCF7 (MCF7 cells) it was 624 nM; in assay [2] it was 2700 nM.
For `Cc1cc(C)c(-c2ccc(Cl)cc2)c(C)c1C1=C(O)C2(CCCCC2)OC1=O` [2-6, 3-(4′-chloro-2,4,6-trimethylbiphenyl-3-yl)-4-hydroxy-1-oxaspiro[4.5]dec-3-en-2-one] the same measures were 6850 nM, 724 nM and 5420 nM.
Regarding `COC1CCCC2(C1)OC(=O)C(c1c(C)cc(C)c(-c3ccc(Cl)cc3)c1C)=C2O` (stereo not drawn) [2-12, 3-(4′-chloro-2,4,6-trimethylbiphenyl-3-yl)-4-hydroxy-7-methoxy-1-oxaspiro[4.5]dec-3-en-2-one], the IC50 was determined as 4260 nM in assay [1], 1240 nM with MCF7 (MCF7 cells) and 3420 nM in assay [2].
Regarding `COCC1CCC2(CC1)OC(=O)C(c1c(C)ccc(-c3ccc(Cl)cc3)c1C)=C2O` (stereo not drawn) [2-17, 3-(4′-chloro-2,4-dimethylbiphenyl-3-yl)-4-hydroxy-8-(methoxymethyl)-1-oxaspiro[4.5]dec-3-en-2-one], the 50% inhibitory concentration (IC50) was 58 nM in assay [1] (setting [3]), 400 nM in the assay with MCF7 (MCF7 cells) and 1180 nM in assay [2].
For `COCCC1CCCC2(C1)OC(=O)C(c1cc(-c3ccc(Cl)cc3)ccc1C)=C2O` (stereo not drawn) [2-18, 3-(4′-chloro-4-methylbiphenyl-3-yl)-4-hydroxy-7-(2 methoxyethyl)-1-oxaspiro[4.5]dec-3-en-2-one] the same measures were 276 nM, 935 nM and 12200 nM.
`COCC1CCC2(CC1)OC(=O)C(c1cc(-c3ccc(Cl)cc3)ccc1C)=C2O` (stereo not drawn) [2-20, 3-(4′-chloro-4-methylbiphenyl-3-yl)-4-hydroxy-8-(methoxymethyl)-1-oxaspiro[4.5]dec-3-en-2-one]: the half-maximal inhibitory concentration (IC50) in assay [1] (setting [3]) was determined as 102 nM; in the assay on MCF7 (MCF7 cells), 214 nM; in assay [2], 1720 nM.
As to `Cc1ccc(-c2ccc(Cl)cc2)c(C)c1C1=C(O)[C@]2(CC[C@]3(CCCO3)CC2)OC1=O` [2-26, (5s,8r)-3-(4′-chloro-2,4-dimethylbiphenyl-3-yl)-4-hydroxy-1,9-dioxadispiro[4.2.4.2]tetradec-3-en-2-one], the half-inhibitory concentration (IC50) is 6110 nM in assay [1] (setting [3]), 5520 nM in the assay with MCF7 (MCF7 cells) and over 20000 nM in assay [2].
Consider `Cc1ccc(-c2ccc(F)cc2)cc1C1=C(O)[C@]2(CC[C@@]3(CCCO3)CC2)OC1=O` [2-28, (5r,8s)-3-(4′-fluoro-4-methylbiphenyl-3-yl)-4-hydroxy-1,9-dioxadispiro[4.2.4.2]tetradec-3-en-2-one], for which the IC50 in assay [1] (setting [3]) was 128 nM; in the assay with MCF7 (MCF7 cells), 296 nM; in assay [2] it was 4600 nM.
As to `Cc1cc(C)c(-c2ccc(Cl)cc2)c(C)c1C1=C(O)[C@]2(CC[C@@]3(CCCO3)CC2)OC1=O` [2-31, (5r,8s)-3-(4′-chloro-2,4,6-trimethylbiphenyl-3-yl)-4-hydroxy-1,9-dioxadispiro[4.2.4.2]tetradec-3-en-2-one], the values for the concentration for half-maximal inhibition (IC50) (in assay [1]; in the assay with MCF7 (MCF7 cells); in assay [2]) were 2000 nM, 490 nM and 76 nM, respectively.
Turning to `Cc1ccc(-c2ccc(Cl)cc2)c(C)c1C1=C(O)C2(CCC(OCC(F)(F)F)CC2)OC1=O` (stereo not drawn) [2-32, 3-(4′-chloro-2,4-dimethylbiphenyl-3-yl)-4-hydroxy-8-(2,2,2-trifluoroethoxy)-1-oxaspiro[4.5]dec-3-en-2-one], the IC50 in assay [1] came out at 339 nM; in the assay on MCF7 (MCF7 cells), 112 nM; in assay [2], 2820 nM.
Regarding `Cc1cc(C)c(-c2ccc(Cl)cc2)cc1C1=C(O)C2(CCSCC2)OC1=O` [2-42, 3-(4′-chloro-4,6-dimethylbiphenyl-3-yl)-4-hydroxy-1-oxa-8-thiaspiro[4.5]dec-3-en-2-one], the IC50 in assay [1] (setting [3]) came out at 246 nM; in the assay with MCF7 (MCF7 cells), 466 nM; in assay [2], 1560 nM.
Consider `Cc1cc(C)c(-c2ccc(Cl)cc2)cc1C1=C(O)C2(CCCCCC2)OC1=O` [2-43, 3-(4′-chloro-4,6-dimethylbiphenyl-3-yl)-4-hydroxy-1-oxaspiro[4.6]undec-3-en-2-one], for which the concentration for half-maximal inhibition (IC50) came out at 168 nM in assay [1], 263 nM in the assay with MCF7 (MCF7 cells) and 737 nM in assay [2].
For `COC1CCC2(CC1)OC(=O)C(c1cc(-c3ccc(Cl)cc3)c(C)cc1C)=C2O` (stereo not drawn) [2-44, 3-(4′-chloro-4,6-dimethylbiphenyl-3-yl)-4-hydroxy-8-methoxy-1-oxaspiro[4.5]dec-3-en-2-one] the same measures were 220 nM, 121 nM and 244 nM.
For the compound `Cc1cc(C)c(-c2ccc(Cl)cc2)cc1C1=C(O)C(C)OC1=O` (stereo not drawn) [2-45, 3-(4′-chloro-4,6-dimethylbiphenyl-3-yl)-4-hydroxy-5-methylfuran-2(5H)-one], the IC50 came out at 1830 nM in assay [1], 6700 nM in the assay on MCF7 (MCF7 cells) and 17500 nM in assay [2].
Take `Cc1cc(C)c(-c2ccc(Cl)cc2)c(C)c1C1=C(O)C2(CCCCCC2)OC1=O` [2-48, 3-(4′-chloro-2,4,6-trimethylbiphenyl-3-yl)-4-hydroxy-1-oxaspiro[4.6]undec-3-en-2-one]: the IC50 in assay [1] (setting [3]) was found to be 1540 nM; in the assay with MCF7 (MCF7 cells) it was 762 nM; in assay [2], 417 nM.
`Cc1cc(C)c(-c2ccc(Cl)cc2)cc1C1=C(O)C2(CCCCC2)SC1=O` [3-3, 3-(4′-chloro-4,6-dimethylbiphenyl-3-yl)-4-hydroxy-1-thiaspiro[4.5]dec-3-en-2-one]: the IC50 in assay [1] (setting [4]) was found to be 265 nM; in the assay on MCF7 (setting [5]), 575 nM; in assay [2], 1150 nM.
For the compound `Cc1ccc(-c2ccc(C)c(C3=C(O)C4(CCCCC4)CC3=O)c2)cc1` [6-1, 3-(4,4′-dimethylbiphenyl-3-yl)-4-hydroxyspiro[4.5]dec-3-en-2-one], the half-inhibitory concentration (IC50) in assay [1] (setting [4]) came to 411 nM; in the assay on MCF7 (setting [5]), 545 nM; in assay [2], 19700 nM.
The corresponding values for `Cc1ccc(-c2ccc(Cl)cc2Cl)cc1C1=C(O)C2(CCCCC2)CC1=O` [6-2, 3-(2′,4′-dichloro-4-methylbiphenyl-3-yl)-4-hydroxyspiro[4.5]dec-3-en-2-one] are 263 nM, 194 nM and 3230 nM.
For `CCC1CCC2(CC1)CC(=O)C(c1cc(-c3ccc(Cl)cc3)ccc1C)=C2O` (stereo not drawn) [6-5, 3-(4′-chloro-4-methylbiphenyl-3-yl)-8-ethyl-4-hydroxyspiro[4.5]dec-3-en-2-one] the same measures were 523 nM, 605 nM and 1210 nM.
The corresponding values for `CCCC1CCC2(CC1)CC(=O)C(c1cc(-c3ccc(Cl)cc3)ccc1C)=C2O` (stereo not drawn) [6-6, 3-(4′-chloro-4-methylbiphenyl-3-yl)-4-hydroxy-8-propylspiro[4.5]dec-3-en-2-one] are 946 nM, 582 nM and 1250 nM.
`Cc1ccc(-c2ccc(Cl)cc2)cc1C1=C(O)C2(CCCCCC2)CC1=O` [6-7, 3-(4′-chloro-4-methylbiphenyl-3-yl)-4-hydroxyspiro[4.6]undec-3-en-2-one]: the half-inhibitory concentration (IC50) in assay [1] (setting [4]) stood at 1030 nM; with MCF7 (setting [5]), 338 nM; in assay [2] it was 7190 nM.
The corresponding values for `Cc1cc(C)c(-c2ccc(Cl)cc2)cc1C1=C(O)C2(CCCCC2)CC1=O` [6-8, 3-(4′-chloro-4,6-dimethylbiphenyl-3-yl)-4-hydroxyspiro[4.5]dec-3-en-2-one] are 1160 nM, 254 nM and 151 nM.
Consider `Cc1cc(C)c(-c2ccc(Cl)cc2)c(C)c1C1=C(O)C2(CCCCC2)CC1=O` [6-9, 3-(4′-chloro-2,4,6-trimethylbiphenyl-3-yl)-4-hydroxyspiro[4.5]dec-3-en-2-one], for which the IC50 was at least 20000 nM in assay [1], 1520 nM in the assay on MCF7 (setting [5]) and 2120 nM in assay [2].
For `Cc1cc(C)c(-c2ccc(Cl)cc2)cc1C1=C(O)CC(C)(C)CC1=O` [7-3, 2-(4′-chloro-4,6-dimethylbiphenyl-3-yl)-3-hydroxy-5,5-dimethylcyclohex-2-en-1-one], the IC50 in assay [1] (setting [4]) stood at 1740 nM; in the assay with MCF7 (setting [5]) it was 974 nM; in assay [2], 13000 nM.
On to `Cc1cc(C)c(-c2ccc(Cl)cc2)cc1C1=C(O)C(C)(C)CCC1=O` [7-4, 2-(4′-chloro-4,6-dimethylbiphenyl-3-yl)-3-hydroxy-4,4-dimethylcyclohex-2-en-1-one], for which the half-inhibitory concentration (IC50) in assay [1] (setting [4]) is 7110 nM; with MCF7 (setting [5]), 2630 nM; in assay [2] it was over 20000 nM.
Take `Cc1ccc(-c2ccc(Cl)cc2)cc1C1=C(O)C(C)(C)CNC1=O` [9-2, 3-(4′-chloro-4-methylbiphenyl-3-yl)-4-hydroxy-5,5-dimethyl-5,6-dihydropyridin-2(1H)-one]: the half-inhibitory concentration (IC50) in assay [1] (setting [4]) was 11200 nM; in the assay on MCF7 (MCF7 cells), 1720 nM; in assay [2], over 20000 nM.

Usually IC50 stands for the concentration that gives 50% inhibition.
